Measured values published in paper PMC11853660 (Biomimetics, 2025).
Where a SMILES comes first, the peptide text is derived from it. [ ]: non-standard residue; d: D form. pS = N[C@@H](COP(=O)(O)O)C(=O)O

Assays:
α-amylase = test: Peptide stability in artificial saliva with α-amylase (HPLC); format: in vitro ADME; settings: 37 °C
Procedure: (§1) Solutions of MMP8, MMP1 (R&D systems, Minneapolis, MN, USA), α-amylase, and lysozyme (Sigma, Burlington, MA, USA) were prepared following the manufacturer’s instructions. Prior to each use, pro-MMP1 and pro-MMP8 were activated with 10 mM APMA according to the manufacturer’s protocol (R&D Systems). Successful cleavage of both enzymes into their active form was confirmed using SDS-PAGE gel electrophoresis. To better mimic in vivo oral conditions, all enzymes were used at concentrations found in healthy individuals, as reported in the literature: MMP8 (final 0.286 μg/mL; [30], MMP1 (final 20 pg/mL [31], α-amylase (final 119 U/mL; [32], and lysozyme (final 0.4 μg/mL [30]. A total of 125 μL of aqueous P26 or P26-CS solutions (0.2 mg/mL final) was added to an equal volume of artificial saliva (AS; 1.2 mM CaCl2·2H2O, 50 mM HEPES buffer, 0.72 mM KH2PO4, 16 mM KCl, 4.5 mM NH4Cl, 0.2 mM MgCl2·6H20, and 1 ppm NaF). Then, the enzymes were mixed in and immediately placed in a water bath at 37 °C. An initial collection was (t = 0) carried out and analyzed by Reverse-phase High-Performance Liquid Chromatography (HPLC), as described below. Incubations for each sample were performed in triplicate. To quantify the effect of each enzyme, individual enzymes were incubated with 125 μL of P26-CS and 125 μL of AS. […]

[1] = Self-degradation of P26 without enzymes (LC/MS); format: physicochemical; settings: P26 solution 0.2 mg/mL, 37 °C, 7 days
Procedure: P26 amelogenin peptide was synthetized by Biomer Technology (San Francisco, CA, USA). P26 solutions (0.2 mg/mL) were prepared as previously described and incubated at 37 °C for 7 days and subsequently analyzed by liquid chromatography/mass spectrometry (LC/MS; Scripps Research Institute, San Diego, CA, USA). Significant peaks in the MS spectra were matched to degradation products of P26 based on their m/z.

[2] = tested on: MMP1, MMP8, α-amylase, and lysozyme; test: Peptide stability in artificial saliva with all salivary enzymes simultaneously (HPLC); format: in vitro ADME; settings: all enzymes at native concentrations, 30 min, 37 °C, n = 3
Procedure: as §1

[3] = tested on: MMP8, MMP1, α-amylase, and lysozyme; test: Peptide stability in artificial saliva with individual salivary enzymes (HPLC peak area); format: in vitro ADME; settings: individual enzymes at native concentrations, peptide 0.2 mg/mL, 30 min, 37 °C, RP-HPLC C18 peak area, triplicate
Procedure: as §1

[4] = P26 in aqueous solution, without enzymes; settings: 37 °C, up to 7 days

CSCC[C@H](N)C(=O)N1CCC[C@H]1C(=O)N[C@@H](CC(C)C)C(=O)N1CCC[C@H]1C(=O)N[C@@H](COP(=O)(O)O)C(=O)N[C@@H](Cc1ccc(O)cc1)C(=O)N[C@@H](CCC(=O)O)C(=O)N[C@H](C(=O)N[C@@H](CC(C)C)C(=O)N[C@H](C(=O)N1CCC[C@H]1C(=O)N[C@@H](CC(C)C)C(=O)N[C@@H](CCCCN)C(=O)N[C@@H](Cc1c[nH]c2ccccc12)C(=O)N1CCC[C@H]1C(=O)N[C@@H](CO)C(=O)N[C@H](C(=O)N[C@@H](CC(=O)O)C(=O)N[C@@H](CCCCN)C(=O)N[C@H](C(=O)N[C@@H](CCCCN)C(=O)N[C@@H](CCCNC(=N)N)C(=O)N[C@@H](CCC(=O)O)C(=O)N[C@@H](CCC(=O)O)C(=O)N[C@H](C(=O)N[C@@H](CC(=O)O)C(=O)O)C(C)C)[C@@H](C)O)[C@@H](C)O)[C@@H](C)O)C(C)C [P26] (H-MPLP[pS]YEVLTPLKWPSTDKTKREEVD-OH)
degradation products at diluted amylase versus native ratio (α-amylase; α-amylase 23.87 U/mL (5× dilution, enzyme to substrate 1:10) compared with 1:2, artificial saliva, HPLC spectra): lesser degradation products | degradation by amylase relative to other enzymes (α-amylase; α-amylase 119 U/mL (enzyme to substrate 1:2), artificial saliva, 5 h, HPLC): highest levels of degradation amongst all the enzymes used | self-degradation of the peptide without enzymes [1]: substantially resistant to self-degradation | peptide stability, P26 versus P26 with CS [2]: comparably stable | peptide substrate remaining (% area of initial HPLC peak at t = 0) [3]: 90–100%

MPLPS(PHOS)YEVLTPLKWPSTDKTKREEVD
cleaved bond [4]: M-P and V-D and E-E and L-P and P-S(PHOS)
